Reference: ChEMBL document CHEMBL4507292 (2021)

Legend:
[1] = target: Neuropeptide Y receptor type 2 (Homo sapiens) (UniProt P49146); assay: Inhibition of Neuropeptide Y Y2 at 10 µM in the Eurofins-Panlabs radioligand binding assay (Eurofins_assay_257110); details: Compound concentration 10.0 uM
[2] = target: Glutamate receptor 2 (Homo sapiens) (UniProt P42262); details: Rattus norvegicus; Compound concentration 10.0 uM
[3] = target: Melanocortin receptor 4 (Homo sapiens) (UniProt P32245); assay: Inhibition of Melanocortin MC4 at 10 µM in the Eurofins-Panlabs radioligand binding assay (Eurofins_assay_251350); set-up: ligand concentration 0.02 nM; details: Compound concentration 10.0 uM
[4] = target: hERG (KCNH2) potassium channel (Homo sapiens, UniProt Q12809); assay: Inhibition of Potassium Channel hERG at 10 µM in the Eurofins-Panlabs radioligand binding assay (Eurofins_assay_265900); set-up: ligand concentration 1.5 nM, non-specific ligand with concentration Astemizole, incubation time 60 min, incubation temperature 25 °C; details: HEK-293 cells expressing human recombinant hERG, probe [3H] Astemizole, 1.5 nM, compound concentration 10 uM
Homo sapiens [5] = organism: Homo sapiens; assay: (§1) Prostanoid, Thromboxane A2 (TP) Eurofins-Panlabs radioligand binding assay; set-up: ligand concentration 5 nM, non-specific ligand with concentration 1 µM SQ-29548, incubation time 30 min, incubation temperature 25 °C
[6] = as §1; set-up: species or system Homo sapiens; ligand concentration 5 nM, non-specific ligand with concentration 1 µM SQ-29548, incubation time 30 min, incubation temperature 25 °C
[7] = target: T1, 5-hydroxytryptamine receptor 1A (Homo sapiens) (UniProt P08908)
T1 sequence (whole entry): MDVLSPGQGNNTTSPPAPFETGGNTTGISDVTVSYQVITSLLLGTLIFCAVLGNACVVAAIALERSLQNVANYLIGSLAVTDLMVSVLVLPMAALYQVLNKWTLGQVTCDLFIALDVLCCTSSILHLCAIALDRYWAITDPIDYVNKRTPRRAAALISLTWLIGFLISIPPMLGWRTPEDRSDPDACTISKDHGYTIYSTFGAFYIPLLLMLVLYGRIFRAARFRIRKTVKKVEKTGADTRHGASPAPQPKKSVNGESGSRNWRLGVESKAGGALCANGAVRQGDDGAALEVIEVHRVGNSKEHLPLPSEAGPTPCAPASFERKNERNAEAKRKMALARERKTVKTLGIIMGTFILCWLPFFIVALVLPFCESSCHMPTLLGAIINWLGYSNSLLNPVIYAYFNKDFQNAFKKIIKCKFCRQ

[8] = target: cGMP-specific 3',5'-cyclic phosphodiesterase (Homo sapiens, UniProt O76074)
[9] = target: Vasopressin V1a receptor (Homo sapiens) (UniProt P37288); details: Compound concentration 10.0 uM
[10] = target: 5-hydroxytryptamine receptor 1A (Homo sapiens, UniProt P08908); assay: Inhibition of Serotonin (5-Hydroxytryptamine) 5-HT1A at compound concentration of 10.0 uM in the Eurofins-Panlabs radioligand binding assay (Eurofins_assay_271110); set-up: ligand concentration 1.5 nM, non-specific ligand with concentration 10 uM Metergoline, incubation time 60 min, incubation temperature 25 C
Homo sapiens [11] = organism: Homo sapiens; assay: Inhibition of Nicotinic Acetylcholine at compound concentration of 10.0 uM in the Eurofins-Panlabs radioligand binding assay (Eurofins_assay_258590); assay type: protein-complex assay; details: Compound concentration 10.0 uM
Phosphodiesterase 3 = Phosphodiesterase 3 (Homo sapiens, UniProt Q14432+Q13370); assay: Inhibition of Phosphodiesterase PDE3 at compound concentration of 10.0 uM in the Eurofins-Panlabs enzyme assay (Eurofins_assay_152000); assay type: protein assay; set-up: substrate with concentration 1.01 uM [3H] cAMP + cAMP, incubation time 20 min, incubation temperature 25 C
[12] = target: ATP-sensitive inward rectifier potassium channel 11 (Cricetulus griseus) (UniProt A0A3L7HHE1); assay: Inhibition of Potassium Channel [KATP] at 10 µM in the Eurofins-Panlabs radioligand binding assay (Eurofins_assay_265600); details: Cricetinae; Compound concentration 10.0 uM
[13] = target: cGMP-dependent 3',5'-cyclic phosphodiesterase (Homo sapiens, UniProt O00408); assay: Phosphodiesterase PDE2 Eurofins-Panlabs enzyme assay; set-up: substrate with concentration [3H] cAMP + cAMP, incubation time 20 min, incubation temperature 25 °C
[14] = target: Substance-K receptor (Homo sapiens) (UniProt P21452); assay: Inhibition of Tachykinin NK2 at 10 µM in the Eurofins-Panlabs radioligand binding assay (Eurofins_assay_255600); set-up: ligand concentration 0.5 nM; details: Compound concentration 10.0 uM
[15] = target: Endothelin-1 receptor (Homo sapiens) (UniProt P25101); details: Compound concentration 10.0 uM
[16] = target: Sodium-dependent noradrenaline transporter (Homo sapiens, UniProt P23975); assay: Inhibition of Transporter, Norepinephrine (NET) at compound concentration of 10.0 uM in the Eurofins-Panlabs radioligand binding assay (Eurofins_assay_204410); set-up: ligand concentration 0.2 nM, non-specific ligand with concentration 10 uM Desipramine, incubation time 3 h, incubation temperature 4 C
[17] = target: Estrogen receptor (Homo sapiens) (UniProt P03372); details: Compound concentration 10.0 uM
[18] = target: Prostaglandin G/H synthase 1 (Homo sapiens) (UniProt P23219); assay: Inhibition of Cyclooxygenase COX-1 at compound concentration of 10.0 uM in the Eurofins-Panlabs enzyme assay (Eurofins_assay_116020); details: Compound concentration 10.0 uM
Homo sapiens [19] = organism: Homo sapiens; assay: Calcitonin Gene-Related Peptide CGRP1 Eurofins-Panlabs radioligand binding assay; assay type: protein-complex assay; details: Compound concentration 10.0 uM
[20] = target: Glucocorticoid receptor (Homo sapiens) (UniProt P04150); assay: Glucocorticoid Eurofins-Panlabs radioligand binding assay; details: Compound concentration 10.0 uM
Rattus norvegicus = organism: Rattus norvegicus; assay: Inhibition of Glycine, Strychnine-Sensitive at 10 µM in the Eurofins-Panlabs radioligand binding assay (Eurofins_assay_239000); details: Compound concentration 10.0 uM
[21] = target: monoamine oxidase B (MAO-B) (Homo sapiens, UniProt P27338); assay: Inhibition of Monoamine Oxidase MAO-B at compound concentration of 10.0 uM in the Eurofins-Panlabs enzyme assay (Eurofins_assay_140120); set-up: substrate with concentration 50 uM Kynuramine, incubation time 60 min, incubation temperature 37 C; details: human recombinant MAO-B expressed in insect Hi5 cells, probe kynuramine, 50 uM, compound concentration 10 uM
[22] = target: Mitogen-activated protein kinase 14 (Homo sapiens, UniProt Q16539); assay: NanoBRET (SGC Frankfurt) (MAPK14)
[23] = target: Synaptic vesicular amine transporter (Homo sapiens) (UniProt Q05940); details: Oryctolagus cuniculus
[24] = target: Kappa-type opioid receptor (Homo sapiens, UniProt P41145); assay: Inhibition of Opiate kappa (OP2, KOP) at compound concentration of 10.0 uM in the Eurofins-Panlabs radioligand binding assay (Eurofins_assay_260210); set-up: ligand concentration 0.6 nM, non-specific ligand with concentration 10 uM Naloxone, incubation time 60 min, incubation temperature 25 C
[25] = target: Somatostatin receptor type 1 (Homo sapiens) (UniProt P30872); assay: Somatostatin sst1 Eurofins-Panlabs radioligand binding assay; set-up: ligand concentration 0.1 nM; details: Compound concentration 10.0 uM
[26] = target: B1 bradykinin receptor (Homo sapiens) (UniProt P46663); assay: Bradykinin B1 Eurofins-Panlabs radioligand binding assay; details: Compound concentration 10.0 uM
[27] = Compound concentration 100.0 uM

cGMP-dependent 3',5'-cyclic phosphodiesterase, sequence (O00408 whole entry): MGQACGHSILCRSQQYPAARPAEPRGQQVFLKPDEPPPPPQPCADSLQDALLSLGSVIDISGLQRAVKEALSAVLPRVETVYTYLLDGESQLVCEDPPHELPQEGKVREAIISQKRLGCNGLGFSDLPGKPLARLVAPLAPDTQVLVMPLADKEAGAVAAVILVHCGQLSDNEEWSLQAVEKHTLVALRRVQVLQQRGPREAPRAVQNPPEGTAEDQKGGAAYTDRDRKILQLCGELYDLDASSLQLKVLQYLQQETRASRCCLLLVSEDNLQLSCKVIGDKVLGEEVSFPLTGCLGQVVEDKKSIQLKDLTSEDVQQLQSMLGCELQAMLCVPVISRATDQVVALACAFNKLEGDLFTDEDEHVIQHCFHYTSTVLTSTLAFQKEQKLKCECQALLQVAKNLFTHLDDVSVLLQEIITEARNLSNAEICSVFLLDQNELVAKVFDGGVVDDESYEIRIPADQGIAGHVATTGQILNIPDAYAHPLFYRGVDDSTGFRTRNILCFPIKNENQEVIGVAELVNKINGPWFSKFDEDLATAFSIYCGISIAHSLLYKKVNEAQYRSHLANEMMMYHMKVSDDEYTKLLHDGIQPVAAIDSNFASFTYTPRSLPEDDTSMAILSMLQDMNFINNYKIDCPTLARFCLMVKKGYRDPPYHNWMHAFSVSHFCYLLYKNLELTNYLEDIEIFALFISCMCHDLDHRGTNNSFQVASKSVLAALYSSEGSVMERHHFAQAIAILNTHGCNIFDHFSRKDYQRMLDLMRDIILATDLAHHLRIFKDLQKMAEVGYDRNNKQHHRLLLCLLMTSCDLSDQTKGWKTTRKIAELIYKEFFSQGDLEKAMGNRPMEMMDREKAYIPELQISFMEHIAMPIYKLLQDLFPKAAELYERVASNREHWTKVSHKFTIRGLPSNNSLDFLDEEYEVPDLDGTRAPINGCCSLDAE
Synaptic vesicular amine transporter (Homo sapiens), sequence (Q05940 whole entry): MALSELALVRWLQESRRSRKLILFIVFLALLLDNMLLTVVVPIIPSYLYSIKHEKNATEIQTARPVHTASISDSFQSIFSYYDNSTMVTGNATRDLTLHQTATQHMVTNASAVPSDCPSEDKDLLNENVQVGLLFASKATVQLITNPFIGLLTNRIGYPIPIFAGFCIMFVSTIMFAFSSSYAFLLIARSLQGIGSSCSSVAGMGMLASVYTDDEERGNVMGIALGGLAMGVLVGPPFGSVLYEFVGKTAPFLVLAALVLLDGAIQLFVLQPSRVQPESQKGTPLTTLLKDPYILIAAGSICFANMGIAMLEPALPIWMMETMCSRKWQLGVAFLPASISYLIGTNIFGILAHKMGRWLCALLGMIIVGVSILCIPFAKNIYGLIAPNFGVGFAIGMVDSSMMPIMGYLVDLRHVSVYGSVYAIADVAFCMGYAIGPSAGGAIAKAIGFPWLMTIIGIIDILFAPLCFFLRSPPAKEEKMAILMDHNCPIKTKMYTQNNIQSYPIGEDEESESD
Kappa-type opioid receptor, sequence (P41145 whole entry): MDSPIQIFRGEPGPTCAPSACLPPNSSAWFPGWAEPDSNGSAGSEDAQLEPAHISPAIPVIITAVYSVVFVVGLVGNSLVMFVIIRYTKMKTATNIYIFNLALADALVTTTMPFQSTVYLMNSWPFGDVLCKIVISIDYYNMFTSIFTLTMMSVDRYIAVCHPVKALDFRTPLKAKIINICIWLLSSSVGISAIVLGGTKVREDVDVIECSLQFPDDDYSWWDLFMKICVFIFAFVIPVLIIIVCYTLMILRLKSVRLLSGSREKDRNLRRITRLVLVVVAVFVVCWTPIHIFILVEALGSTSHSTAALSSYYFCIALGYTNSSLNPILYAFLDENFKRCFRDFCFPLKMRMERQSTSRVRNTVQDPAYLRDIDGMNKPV
Sodium-dependent noradrenaline transporter, sequence (P23975 whole entry): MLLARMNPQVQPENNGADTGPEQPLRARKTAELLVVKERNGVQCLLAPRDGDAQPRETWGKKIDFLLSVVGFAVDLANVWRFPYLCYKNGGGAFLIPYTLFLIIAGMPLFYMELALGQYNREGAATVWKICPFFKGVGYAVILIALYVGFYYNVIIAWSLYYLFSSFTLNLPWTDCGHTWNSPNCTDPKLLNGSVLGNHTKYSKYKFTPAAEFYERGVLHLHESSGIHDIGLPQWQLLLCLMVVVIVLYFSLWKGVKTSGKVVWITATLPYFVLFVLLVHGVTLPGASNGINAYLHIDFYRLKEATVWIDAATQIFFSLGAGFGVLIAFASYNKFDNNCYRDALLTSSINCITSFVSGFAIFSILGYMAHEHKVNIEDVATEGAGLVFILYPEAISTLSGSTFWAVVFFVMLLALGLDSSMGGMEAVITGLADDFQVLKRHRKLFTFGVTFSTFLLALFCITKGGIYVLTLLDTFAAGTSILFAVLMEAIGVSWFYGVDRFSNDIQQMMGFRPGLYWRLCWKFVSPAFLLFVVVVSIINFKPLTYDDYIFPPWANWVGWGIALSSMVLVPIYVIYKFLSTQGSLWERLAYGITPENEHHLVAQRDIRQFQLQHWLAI
Endothelin-1 receptor (Homo sapiens), sequence (P25101 whole entry): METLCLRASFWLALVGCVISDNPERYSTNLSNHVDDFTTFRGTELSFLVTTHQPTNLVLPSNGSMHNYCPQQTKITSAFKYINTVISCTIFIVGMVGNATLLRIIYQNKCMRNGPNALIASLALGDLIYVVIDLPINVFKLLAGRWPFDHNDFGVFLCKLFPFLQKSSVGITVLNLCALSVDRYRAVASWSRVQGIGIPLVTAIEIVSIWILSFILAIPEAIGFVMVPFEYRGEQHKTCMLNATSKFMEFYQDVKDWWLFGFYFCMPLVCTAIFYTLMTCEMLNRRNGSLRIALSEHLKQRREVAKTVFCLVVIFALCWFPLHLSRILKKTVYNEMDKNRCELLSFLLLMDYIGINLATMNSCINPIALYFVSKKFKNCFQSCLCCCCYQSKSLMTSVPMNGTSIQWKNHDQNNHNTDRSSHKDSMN
Prostaglandin G/H synthase 1 (Homo sapiens), sequence (P23219 whole entry): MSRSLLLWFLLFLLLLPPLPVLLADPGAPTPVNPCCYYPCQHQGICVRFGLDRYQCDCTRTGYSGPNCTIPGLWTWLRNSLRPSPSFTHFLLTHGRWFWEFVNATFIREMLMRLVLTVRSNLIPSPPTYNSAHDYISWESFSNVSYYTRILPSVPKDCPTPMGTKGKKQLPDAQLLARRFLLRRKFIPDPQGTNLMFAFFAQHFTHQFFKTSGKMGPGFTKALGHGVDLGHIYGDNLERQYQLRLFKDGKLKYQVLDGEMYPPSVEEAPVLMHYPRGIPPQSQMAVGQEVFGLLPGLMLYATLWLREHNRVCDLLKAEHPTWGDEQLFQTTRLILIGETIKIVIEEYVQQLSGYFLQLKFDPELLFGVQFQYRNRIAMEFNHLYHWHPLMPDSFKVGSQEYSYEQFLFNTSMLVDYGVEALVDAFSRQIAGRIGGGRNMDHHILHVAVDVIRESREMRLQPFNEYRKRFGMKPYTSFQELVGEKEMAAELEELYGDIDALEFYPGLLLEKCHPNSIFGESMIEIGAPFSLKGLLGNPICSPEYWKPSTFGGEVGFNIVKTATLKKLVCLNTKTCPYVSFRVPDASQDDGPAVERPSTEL
Neuropeptide Y receptor type 2 (Homo sapiens), sequence (P49146 whole entry): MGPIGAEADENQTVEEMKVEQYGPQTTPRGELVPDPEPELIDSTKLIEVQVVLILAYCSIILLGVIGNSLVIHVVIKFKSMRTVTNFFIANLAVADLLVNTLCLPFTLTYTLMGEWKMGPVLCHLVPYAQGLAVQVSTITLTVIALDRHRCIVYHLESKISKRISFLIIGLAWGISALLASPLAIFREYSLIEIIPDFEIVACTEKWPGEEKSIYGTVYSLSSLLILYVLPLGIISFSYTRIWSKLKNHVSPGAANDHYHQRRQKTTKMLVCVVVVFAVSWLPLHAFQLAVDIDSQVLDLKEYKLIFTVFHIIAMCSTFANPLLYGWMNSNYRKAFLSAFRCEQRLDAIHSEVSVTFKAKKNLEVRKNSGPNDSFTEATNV
Vasopressin V1a receptor (Homo sapiens), sequence (P37288 whole entry, looked up): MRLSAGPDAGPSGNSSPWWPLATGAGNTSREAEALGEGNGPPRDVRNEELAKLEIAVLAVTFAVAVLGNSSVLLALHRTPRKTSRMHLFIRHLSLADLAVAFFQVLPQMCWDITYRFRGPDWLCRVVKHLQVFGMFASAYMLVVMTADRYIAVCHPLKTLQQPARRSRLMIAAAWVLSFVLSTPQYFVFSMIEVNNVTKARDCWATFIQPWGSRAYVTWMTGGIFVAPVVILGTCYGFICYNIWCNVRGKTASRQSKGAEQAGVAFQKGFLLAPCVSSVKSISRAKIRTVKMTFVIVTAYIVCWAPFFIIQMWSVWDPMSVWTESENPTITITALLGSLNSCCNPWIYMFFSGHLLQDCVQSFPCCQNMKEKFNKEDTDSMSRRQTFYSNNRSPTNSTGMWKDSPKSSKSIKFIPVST
Somatostatin receptor type 1 (Homo sapiens), sequence (P30872 whole entry): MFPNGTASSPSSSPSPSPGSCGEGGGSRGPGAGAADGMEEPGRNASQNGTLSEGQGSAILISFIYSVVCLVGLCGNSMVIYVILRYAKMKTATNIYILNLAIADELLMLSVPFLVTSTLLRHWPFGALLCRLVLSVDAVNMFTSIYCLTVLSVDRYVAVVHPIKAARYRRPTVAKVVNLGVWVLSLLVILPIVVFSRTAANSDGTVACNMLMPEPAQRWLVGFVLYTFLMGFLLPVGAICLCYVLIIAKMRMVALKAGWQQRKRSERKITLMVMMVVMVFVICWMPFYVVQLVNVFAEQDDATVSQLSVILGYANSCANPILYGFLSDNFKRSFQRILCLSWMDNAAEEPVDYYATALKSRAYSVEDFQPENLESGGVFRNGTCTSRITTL

Structure (SMILES): O=C(O)c1cc(-c2ccc(C3CCNCC3)cc2)c2ccc(-c3ccc(C(F)(F)F)cc3)cc2c1 [PPTN]
- inhibition [1]: -1%
- inhibition [2]: -2%
- inhibition [3]: 28%
- inhibition at 60 min, 10 µM [4]: -6% (not active)
- inhibition (Homo sapiens [5]; Compound concentration 0.01 uM): 14%
- inhibition (Homo sapiens [5]; Compound concentration 0.1 uM): -5%
- inhibition (Homo sapiens [5]; Compound concentration 1.0 uM): 9%
- inhibition (Homo sapiens [5]; Compound concentration 10.0 uM): 51%
- IC50 [6]: 9.5 µM
- Ki [6]: 6.2 µM
- inhibition ([7]; Compound concentration 0.01 uM): 0%
- inhibition ([7]; Compound concentration 0.1 uM): -2%
- inhibition ([7]; Compound concentration 1.0 uM): 4%
- inhibition ([7]; Compound concentration 10.0 uM): 64%
- inhibition ([8]; Compound concentration 0.1 uM): -3%
- inhibition ([8]; Compound concentration 1.0 uM): -8%
- inhibition ([8]; Compound concentration 10.0 uM): 22%
- inhibition [8, 27]: 72%
- inhibition [9]: 3%
- IC50 [10]: 7.01 µM
- Ki [10]: 4 µM
- inhibition (Homo sapiens [11]): 0%
- IC50 (Phosphodiesterase 3): 51.5 µM
- inhibition (Phosphodiesterase 3; Compound concentration 0.1 uM): -7%
- inhibition (Phosphodiesterase 3; Compound concentration 1.0 uM): 4%
- inhibition (Phosphodiesterase 3; Compound concentration 10.0 uM): 28%
- inhibition (Phosphodiesterase 3; [27]): 59%
- inhibition [12]: 1%
- IC50 [13]: 86.9 µM
- inhibition ([13]; Compound concentration 1.0 uM): -3%
- inhibition ([13]; Compound concentration 10.0 uM): 4%
- inhibition [13, 27]: 55%
- inhibition [14]: 26%
- inhibition [15]: 6%
- IC50 [16]: 3.3 µM
- Ki [16]: 3.27 µM
- inhibition [17]: 12%
- inhibition [18]: 4%
- inhibition (Homo sapiens [19]): 26%
- inhibition [20]: -9%
- inhibition (Rattus norvegicus): -3%
- inhibition at 60 min, 10 µM [21]: 3% (not active)
- IC50 [22]: > 20 µM (not active)
- inhibition ([23]; Compound concentration 0.01 uM): -8%
- inhibition ([23]; Compound concentration 0.1 uM): 8%
- inhibition ([23]; Compound concentration 1.0 uM): 41%
- inhibition ([23]; Compound concentration 10.0 uM): 59%
- IC50 [24]: 8.03 µM
- Ki [24]: 3.21 µM
- inhibition [25]: 34%
- inhibition [26]: 12%
